Test results as given in patent US12180139B2, “Method for preparing aminoalkanoic acid derivative containing biphenyl group” (AMTIXBIO CO., LTD., priority 2019, dated 2024).

Experiments:
[1] = system: B. cereus (+); assay: Antibacterial MIC test (CLSI); format: cell-based; details: MHB liquid medium, 37° C., 24 hours
Experimental: (§1) The MIC test was conducted in accordance CLSI guidelines. […] As a positive control, Nofloxacin and Vancomycin were used.

[2] = system: B. coagulans (+); assay: Antibacterial MIC test (CLSI); format: cell-based; details: MHB liquid medium, 37° C., 24 hours
Experimental: as §1

[3] = system: B. subtilis (+); assay: Antibacterial MIC test (CLSI); format: cell-based; details: MHB liquid medium, 37° C., 24 hours
Experimental: as §1

[4] = system: E. coli (−); assay: Antibacterial MIC test (CLSI); format: cell-based; details: MHB liquid medium, 37° C., 24 hours
Experimental: as §1

[5] = system: L. monocytogenes (+); assay: Antibacterial MIC test (CLSI); format: cell-based; details: MHB liquid medium, 37° C., 24 hours
Experimental: as §1

[6] = system: M. luteus (+); assay: Antibacterial MIC test (CLSI); format: cell-based; details: MHB liquid medium, 37° C., 24 hours
Experimental: as §1

[7] = system: P. acnes (+); assay: Antibacterial MIC test (CLSI); format: cell-based; details: MHB liquid medium, 37° C., 24 hours
Experimental: as §1

[8] = system: S. aureus enterica (−); assay: Antibacterial MIC test (CLSI); format: cell-based; details: MHB liquid medium, 37° C., 24 hours
Experimental: as §1

[9] = system: S. aureus (+); details: MHB liquid medium, 37° C., 24 hours
Experimental: (§2) The antibacterial activities against Gram-positive bacteria, Gram-negative bacteria or multi-drug resistant bacteria were evaluated for the compounds of the present invention. The MIC test was conducted in accordance CLSI guidelines. E. coli(−), P. aeruginosa(−), and S. enterica(−) were used as Gram-negative bacteria, B. cereus(+), B. subtilis(+), B. coagulans(+), L. monocytogenes(+), M. luteus(+), P. acnes(+), S. epidermidis(+), and S. aureus(+) were used as Gram-positive bacteria. Methicillin-resistant Staphylococcus aureus (MRSA) was used as multi-drug resistant bacteria. The bacterial cells were incubated until the OD600 of the single colonies reached 0.1. […] Subsequently, bacterial cells were incubated at 37° C. for 24 hours, and then the MICs (μg/ ? ) were determined by visual reading and optical density detection at 600 nm (OD600). As a positive control, Nofloxacin and Vancomycin were used.

[10] = system: S. epidermidis (+); details: MHB liquid medium, 37° C., 24 hours
Experimental: as §2

[11] = system: MRSA; assay: Antibacterial MIC test (CLSI); format: cell-based, Methicillin-resistant Staphylococcus aureus; details: MHB liquid medium, 37° C., 24 hours
Experimental: as §1

[12] = system: C. neoformans; details: RPMI1640 broth, 35° C., 72 hours, visual reading; expressed as a range value
Experimental: (§3) An in vitro antifungal susceptibility test was performed in accordance with the US Clinical and Laboratory Standards Institute (CLSI) guidelines to measure the degree of antifungal activity of the compounds synthesized in the Preparation Examples against opportunistic pathogenic fungi. […] The MIC value (μg/ ? ) is expressed as a range value. Specifically, Candida species and Cryptococcus neoformans were incubated in a Sabouraud dextrose agar (SDA) (Sigma-Aldrich) solid medium for 24 and 48 hours, respectively to obtain single colonies. The obtained single colonies were suspended in 0.85% physiological saline to prepare fungal cell suspension (1 to 5×10^6 cells/ ? ). Fungal cells 2000-fold diluted in RPMI1640 broth (Sigma-Aldrich) were seeded on 96-well plates (5×10^2 to 2.5×10^3 cells/ ? , 195 ? /well). Serial two-fold dilutions (128, 64, 32, 16, 8, 4, 2, 1, and 0.5 μg/ ? ) of compounds were prepared by diluting the compounds synthesized according to the above preparation examples. Then, 5 ? from each dilution was added to the well of the 96-well plate containing fungal cell suspension to give a final suspension of 200 ? per well. […] As a positive control, amphotericin B (AMB), which is highly toxic to the human body but is known as a representative antifungal agent, was used.

[13] = system: C. albicans; details: RPMI1640 broth, 35° C., 48 hours, visual reading; expressed as a range value
Experimental: as §3

[14] = system: C. glabrata; details: RPMI1640 broth, 35° C., 48 hours, visual reading; expressed as a range value
Experimental: as §3

[15] = system: A. fumigatus; details: visual reading; expressed as a range value

Row | SMILES | MIC B. cereus (+) [1] | MIC B. coagulans (+) [2] | MIC B. subtilis (+) [3] | MIC E. coli (−) [4] | MIC L. monocytogenes (+) [5] | MIC M. luteus (+) [6] | MIC P. acnes (+) [7] | MIC S. aureus enterica (−) [8] | MIC S. aureus (+) [9] | MIC S. epidermidis (+) [10] | MIC MRSA [11] | MIC (μg/mL) C. neoformans [12] | MIC (μg/mL) C. albicans [13] | MIC (μg/mL) C. glabrata [14] | MIC (μg/mL) A. fumigatus [15]
1 | CCCCC(NC)C(=O)NCCc1ccc(-c2ccc(C(F)(F)F)cc2)cc1.Cl (racemic) [Compound 88, (R)/(S)-2-(methylamino)-N-(2-(4′-(trifluoromethyl)-[1,1′-biphenyl]-4-yl)ethyl)hexanamide hydrochloride] | >64 µg/mL | <4 µg/mL | 32 µg/mL | 8 µg/mL | <4 µg/mL | >64 µg/mL | <4 µg/mL | >64 µg/mL | 8 µg/mL | 8 µg/mL | 8 µg/mL | 2~8 μg/mL | 4~16 μg/mL | 4~16 μg/mL | 4~16 μg/mL
2 | CCCCC(NC)C(=O)NCCc1ccc(-c2ccc(OC(F)(F)F)cc2)cc1.Cl (racemic) [Compound 91, (R)/(S)-2-(methylamino)-N-(2-(4′-(trifluoromethoxy)-[1,1′-biphenyl]-4-yl)ethyl)hexanamide hydrochloride] | 16 µg/mL | <4 µg/mL | 16 µg/mL | 8 µg/mL | <4 µg/mL | <4 µg/mL | <4 µg/mL | 16 µg/mL | 8 µg/mL | <4 µg/mL | 8 µg/mL | 2~8 μg/mL | 4~16 μg/mL | 4~16 μg/mL | 4~16 μg/mL
3 | CCCCC(N)C(=O)NCCc1ccc(-c2ccc(OC(F)(F)F)cc2)cc1.Cl (racemic) [Compound 81, (R)/(S)-2-amino-N-(2-(4′-(trifluoromethoxy)-[1,1′-biphenyl]-4-yl)ethyl)hexanamide hydrochloride] | 16 µg/mL | <4 µg/mL | 4 µg/mL | 8 µg/mL | <4 µg/mL | <4 µg/mL | 8 µg/mL | 16 µg/mL | 8 µg/mL | 8 µg/mL | 8 µg/mL | 2~8 μg/mL | 2~8 μg/mL | 2~8 μg/mL | 2~8 μg/mL
4 | CCCCC(N)C(=O)NCCc1ccc(-c2ccc(C(F)(F)F)cc2)cc1.Cl (racemic) [Compound 78, (R)/(S)-2-amino-N-(2-(4′-(trifluoromethyl)-[1,1′-biphenyl]-4-yl)ethyl)hexanamide hydrochloride] | 16 µg/mL | <4 µg/mL | <4 µg/mL | 8 µg/mL | <4 µg/mL | 8 µg/mL | >64 µg/mL | 16 µg/mL | 8 µg/mL | 8 µg/mL | 8 µg/mL | 2~8 μg/mL | 4~16 μg/mL | 4~16 μg/mL | 4~16 μg/mL
5 | CCCC(NC)C(=O)NCCc1ccc(-c2ccc(Cl)c(Cl)c2)cc1.Cl (racemic) [Compound 84, (R)/(S)-N-(2-(3′,4′-dichloro-[1,1′-biphenyl]-4-yl)ethyl)-2-(methylamino)pentanamide hydrochloride] | 32 µg/mL | 8 µg/mL | 16 µg/mL | >32 µg/mL | 16 µg/mL | 16 µg/mL | 16 µg/mL | >32 µg/mL | 16 µg/mL | 16 µg/mL | 16 µg/mL | 2~8 μg/mL | 4~1 μg/mL | 4~1 μg/mL | 4~1 μg/mL
